Source: patent US4469701A, “Pyrrolid-3-en-2-ones and pharmaceutical methods of use thereof” (Stauffer Chemical Company, priority 1983, dated 1984)
Like-named read-outs stand apart in the source and are kept apart here.

Tests used:
[1] = tested on: spontaneously hypertensive rats (SHR); experiment: Antihypertensive: blood pressure (tail cuff) in spontaneously hypertensive rats (SHR); format: in vivo, rat; conditions: for inhibition in vivo at 100 mg/kg: 6 hr. after a 100 mg/kg oral dose, significance >10, read-out: Antihypertensive: percent decrease in systolic blood pressure in spontaneously hypertensive rats
Procedure: Blood pressure was measured indirectly (tail cuff) in unanesthetized, unheated spontaneously hypertensive rats (SHR) before and 2, 4, and 6 hours after p.o. dosing. Reduction in mean pressure by more than 10% (>10) at any two consecutive measurement times after dosing indicates antihypertensive activity.

rats [2] = experiment: Bradycardia: heart rate by EKG in rats; format: in vivo, rat; conditions: Rattus norvegicus, 0.75 h; 45 min. after a 5 mg/kg oral dose in rats; significance >10; read-out: B = Bradycardiac: percent decrease in heart rate
Procedure: […] Decrease in heart rate by more than 10% (>10) is considered a bradycardic effect.
Percent decrease in heart rate 45 min. after a 5
mg/kg oral dose in rats.

mice [3] = experiment: Antiarrhythmic: chloroform-induced cardiac arrhythmia in mice; format: in vivo, mouse; conditions: for A = Antiarrythmic: mouse hearts fibrillating (of 3): 15 min. after a 200 mg/kg intraperitoneal dose, significance <2
Procedure: ^2 A = Antiarrythmic. Less than 2/3 mouse hearts fibrillating 15 min.

[4] = tested on: hypercholesterolemic mice; experiment: Hypocholesterolemic: serum cholesterol in hypercholesterolemic mice; format: in vivo, mouse; conditions: Mus musculus, hypercholesterolemic mice; for inhibition in vivo at 200 mg/kg: 2 oral doses of 200 mg/kg 20 hr. apart, significance >20, read-out: C = Hypocholesterolemic: percent decrease in serum cholesterol; for ED100: po, reference compounds, read-out: ED-100, hypocholesterolemic
Procedure: Mice made hypercholesterolemic by being fed a high cholesterol-cholic acid diet for 7 days were dosed on the sixth and seventh days, p.o. After fasting overnight, reduction in serum cholesterol concentration by more than 15% (>15) from hypercholesterolemic control mice indicates activity.
^4 C = Hypocholesterolemic. Percent decrease in serum cholesterol in
hypercholesterolemic mice given 2 oral doses of 200 mg/kg drug candidate

glucose-loaded mice = experiment: Hypoglycemic, glucose-loaded mice; format: in vivo, mouse; conditions: for H = Hypoglycemic: percent decrease in serum glucose concentration: glucose loaded mice, 100 mg/kg oral dose, significance >20
Procedure: Reduction in blood glucose concentration by more than 20% (>20) in fasted, glucose-loaded (1 gm/kg) mice one hour after dosing, p.o., indicates activity (test compound administered at same time as glucose load).
^5 H = Hypoglycemic. Percent decrease in serum glucose concentration
in glucose loaded mice hr. following a 100 mg/kg oral dose.

rats [5] = experiment: Antiulcer: stress induced gastric ulcers in rats; format: in vivo, rat; conditions: Rattus norvegicus; 4 hr. following a 50 mg/kg oral dose in rats; significance >60; read-out: U = Antiulcerative: percent inhibition of stress ulcers
Procedure: Fasted rats were dosed, p.o., 30 minutes before immobilization in wire mesh and partial immersion in water for 4 hours. Inhibition of the resulting stress induced gastric ulcers by more than 60% (>60) indicates activity.
^6 U = Antiulcerative. Percent inhibition of stress ulcers 4 hr.
following a 50 mg/kg oral dose in rats.

mice [6] = experiment: Pupil dilation in mice; format: in vivo, mouse; conditions: i.p.
Procedure: If the pupil diameter of mice exceeds 1.0 mm (>1) in bright light 30 minutes after dosing, i.p., ganglionic blockage or anti-cholinergic activity is indicated in the absence of adrenergic action. The following are reference compounds and the doses thereof.

[7] = Anticholinergic properties (overall statement); conditions: in vivo
starch loaded mice = experiment: Carbohydrate (CHO) efficiency/hypoglycemic, starch loaded mice; format: in vivo, mouse; conditions: Mus musculus, 1 h, oral, reference compounds, read-out: ED-100, CHO efficiency/hypoglycemic
mice [8] = experiment: Peripheral anticholinergic: lacrimation and salivation in mice; format: in vivo; conditions: Mus musculus, ip, mice; reference compounds; read-out: ED-100, peripheral anticholinergic
mice [9] = experiment: Central anticholinergic: oxotremorine tremors in mice; conditions: Mus musculus, ip, 1 h, read-out: ED-100, central anticholinergic
[10] = tested on: hypercholesterolemic mice; experiment: HP-betalipoprotein: serum heparin precipitating lipoprotein (HPL); format: in vivo, mouse; conditions: hypercholesterolemic mice; for ED100: Mus musculus, po, reference compounds, read-out: ED-100, HP-betalipoprotein
Source text: Reduction of serum heparin precipitating lipoprotein (HPL) concentrations (corresponding to low density lipoprotein and very low density lipoprotein fractions) in the same hypercholesterolemic mice from Test 6 above by more than 20% (>20) from control animals indicates activity.

rats [11] = experiment: Antiedema: carrageenan paw edema in rats; format: in vivo; conditions: Rattus norvegicus, po, 3 h, read-out: ED-100, antiedema
Procedure: Rats are dosed p.o. one hour before intraplantar injection of carrigeenan (0.1 ml, 1% susp.). Inhibition of paw edema by more than 30% (>30) 3 hours after carriegeenan injection indicates acute anti-edema activity.

[12] = Overall pharmacological profile; conditions: in vivo
mice [13] = experiment: Acute toxicity / autonomic effects observation; conditions: mouse, in vivo
Procedure: Mice were dosed at 300 mg/kg, per oral (p.o.) and […], interperitoneal (i.p.) for observation of any acute toxic symptoms or autonomic effects during the subsequent 72 hours. If none were noted, pharmacological evaluation proceeded employing doses and concentrations for each test based on appropriate multiples of doses required by suitable reference compounds. If acute toxicity was observed initially, the minimal toxic dose was determined and pharmacological screening doses were reduced proportionately.

[14] = Central nervous system (CNS) depression/effects; conditions: in vivo
[15] = p.o., rats, reference compounds

With CC1(C)CCCC(C)(C)N1CC1=CC(=O)N(c2ccccc2Cl)C1 [Compound 9] the inhibition in vivo at 100 mg/kg ([1]; Rattus norvegicus) was 31%, the inhibition in vivo at 5 mg/kg (rats [2]) was 18% and the “A = Antiarrythmic: mouse hearts fibrillating (of 3)” value (“A = Antiarrythmic” below) (mice [3]) was 0. For the same compound, the inhibition in vivo at 200 mg/kg [4] was 0%, the “H = Hypoglycemic: percent decrease in serum glucose concentration” value (glucose-loaded mice) was 27% and the inhibition in vivo at 50 mg/kg (rats [5]) was 100%. For the same compound, the “Ganglionic blockade as cause of pupillary dilation” value (mice [6]; 25 mg/kg) was “does not appear to reflect ganglionic blockade”, the Pupil dilation (mice [6]; 25 mg/kg) was “Pupillary dilation was again noted” and the Anticholinergic properties/effects [7] was “not likely anticholinergic in nature”.
Compound [H]/N=C(/N)N/C(=N/[H])NCCc1ccccc1 [phenformin, reference compound] has an ED100 (starch loaded mice) of 100 mg/kg and an ED100 (glucose-loaded mice; Mus musculus, po, 1 h, p.o., glucose-loaded mice, reference compounds, read-out: ED-100, hypoglycemic, mice) of 100 mg/kg.
For CNC1(C)C2CCC(C2)C1(C)C (stereo not shown) [mecamylamine, reference compound], the ED100 ([1]; Rattus norvegicus, po, SHR, reference compounds, read-out: ED-100, antihypertensive) was 10 mg/kg and the “Reference dose, pupil dilation” value (mice [6]; reference compounds and the doses thereof) was 2.5 mg/kg.
Work on OC(CCN1CCCCC1)(c1ccccc1)C1CCCCC1 (stereo not shown) [trihexyphenidyl] yielded an ED100 (mice [8]) of 2.5 mg/kg and an ED100 (mice [9]) of 10 mg/kg.
CC/C(=C(/CC)c1ccc(O)cc1)c1ccc(O)cc1 [diethylstilbestrol, reference compound] gave an ED100 [4] of 200 mg/kg and an ED100 [10] of 200 mg/kg.
Work on CCCCC1C(=O)N(c2ccccc2)N(c2ccccc2)C1=O [phenylbutazone] yielded an ED100 (rats [11]; [15]) of 50 mg/kg.
With COc1ccc(N2CC(CN3C(C)(C)CCCC3(C)C)=CC2=O)cc1OC [Compound 12] the inhibition in vivo at 100 mg/kg ([1]; Rattus norvegicus) was 14%, the inhibition in vivo at 5 mg/kg (rats [2]) was 13% and the “A = Antiarrythmic” value (mice [3]) was 2. The inhibition in vivo at 200 mg/kg [4] was 3%, the inhibition in vivo at 50 mg/kg (rats [5]) was 75% and the “Profile (comparison with another compound)” value [12] was “generally similar to that of Compound 6”.
Compound CN(C)CCC=C1c2ccccc2CCc2ccccc21 [amitriptyline] has an ED100 (mice [8]) of 25 mg/kg and an ED100 (mice [9]) of 10 mg/kg.
Compound O=C(O)c1cc(-c2ccc(F)cc2F)ccc1O [diflunisal] has an ED100 (rats [11]; [15]) of 25 mg/kg.
In the case of Cc1cccc(N2CC(CN3C(C)(C)CCCC3(C)C)=CC2=O)c1 [Compound 4], the inhibition in vivo at 100 mg/kg ([1]; Rattus norvegicus) is reported as 23%, the “Antihypertensive activity, onset / comparison in words” value ([1]; p.o.) is reported as “generally comparable to that of Compound 3” and the “Dose at which antihypertensive effects were decreasing” value ([1]; p.o.) is reported as 10 mg/kg. For the same compound, the inhibition in vivo at 5 mg/kg (rats [2]) was 19%, the “A = Antiarrythmic” value (mice [3]) was 2 and the “Dose with borderline antiarrhythmic result” value (mice [3]; i.p., mice, chloroform arrhythmia) was 100 mg/kg. For the same compound, the inhibition in vivo at 200 mg/kg [4] was 25%, the inhibition in vivo at 50 mg/kg (rats [5]) was 75% and the HPL/cholesterol ratio ([10]; 400 mg/kg, p.o.) was “marked reduction”. The Pupil dilation (mice [6]; 50 mg/kg) was “significantly dilated”.
Compound C[C@]12CCC(=O)C=C1CC[C@@H]1[C@@H]2[C@@H](O)C[C@@]2(C)[C@H]1CC[C@]2(O)C(=O)CO [hydrocortisone] has an ED100 (rats [11]) of 25 mg/kg.
For CC1(C)CCCC(C)(C)N1CC1=CC(=O)N(c2cccc(C(F)(F)F)c2)C1 [Compound 1], the “Acute toxicity / toxic effects” value (mice [13]) was “apparent lack of acute toxicity”, the inhibition in vivo at 100 mg/kg ([1]; Rattus norvegicus) was 19% and the inhibition in vivo at 5 mg/kg (rats [2]) was 14%. The “A = Antiarrythmic” value (mice [3]) was 0, the inhibition in vivo at 200 mg/kg [4] was 5% and the “H = Hypoglycemic: percent decrease in serum glucose concentration” value (glucose-loaded mice) was 14%. The inhibition in vivo at 50 mg/kg (rats [5]) was 75%, the “CNS depression / CNS effects” value [14] was “absence of notable central nervous system (CNS) depression” and the Anticholinergic properties/effects [7] was “absence of notable”.
With CSc1ccc(N2CC(CN3C(C)(C)CCCC3(C)C)=CC2=O)cc1 [Compound 8] the inhibition in vivo at 100 mg/kg ([1]; Rattus norvegicus) was 25%, the inhibition in vivo at 5 mg/kg (rats [2]) was 18% and the “A = Antiarrythmic” value (mice [3]) was 3. The inhibition in vivo at 200 mg/kg [4] was 0%, the inhibition in vivo at 50 mg/kg (rats [5]) was 50% and the “Profile (comparison with another compound)” value [12] was “generally similar to that of Compound 6”.
In the case of N[C@H](Cc1cc(I)c(Oc2cc(I)c(O)c(I)c2)c(I)c1)C(=O)O [D-thyroxine, reference compound], the ED100 [4] is reported as 10 mg/kg and the ED100 [10] is reported as 10 mg/kg.
